Values of other authors as cited in patent US8530504B2, “Pyrazolothiazole compound” (Eisai R&D Management Co., Ltd., priority 2009, dated 2013).

How the values were obtained:
[1] = in vivo; cited from earlier work
[2] = system: IBS patients; conditions: cited from earlier work
[3] = in vivo; cited from earlier work; remark: listed apart in the source
[4] = in vivo; cited from earlier work; remark: listed apart in the source
[5] = system: ethanol withdrawal rats; conditions: cited from earlier work
[6] = pretreatment; cited from earlier work
[7] = system: rats; conditions: cited from earlier work
[8] = system: rats; conditions: cited from earlier work; remark: listed apart in the source
[9] = system: rats; conditions: cited from earlier work; remark: listed apart in the source
[10] = in vivo; cited from earlier work; remark: listed apart in the source
[11] = in vivo; cited from earlier work; remark: listed apart in the source

α-helical CRF (9-41)
ischemic and excitotoxic encephalopathy [1]: inhibits ischemic and excitotoxic encephalopathy
colon intestinal hyperkinesis, abdominal pain and anxiety [2]: inhibits colon intestinal hyperkinesis in IBS patients and reduces abdominal pain and anxiety
stress-related increase in intracerebral amyloid-β [3]: suppresses stress-related increase in intracerebral amyloid-β
stress-related reduction in food intake [4]: inhibit stress-related reduction in food intake
anxiety behavior [5]: inhibits anxiety behavior

CCCCN(CC)c1nc(C)nc2c1c(C)cn2-c1c(C)cc(C)cc1C [CP-154526]
naltrexone-induced morphine withdrawal symptoms [6]: inhibits naltrexone-induced morphine withdrawal symptoms
recurrence of stress-elicited alcohol-seeking behavior [7]: inhibits recurrence of stress-elicited alcohol-seeking behavior
recurrence of stress-elicited drug (heroin, cocaine)-seeking behavior [8]: inhibits recurrence of stress-elicited drug (heroin, cocaine)-seeking behavior
anti-depressant and anti-anxiety actions [9]: exhibits anti-depressant and anti-anxiety actions
learning disability following acute stress [10]: inhibits learning disability following acute stress
gastric emptying retardation after surgery [11]: recovers gastric emptying retardation after surgery
